In this assay the target is T1, CSNK1D (CK1 delta) (Homo sapiens, UniProt P48730).
T1 construct: purchased Thermo Fisher Scientific (Life Technologies) SelectScreen
As to the kind of experiment: SelectScreen Z'LYTE. In kind it is biochemical. Put shortly: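 SelectScreen broad panel; activity (Z'LYTE, Adapta) plus binding formats. ATP: Km app for CSF1R Z'LYTE; 10 for CAMK1 Adapta. Readout = % per kinase.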

For one compound, inhibition results are on record in article PMC6934184, “Selective DNA-PKcs inhibition extends the therapeutic index of localized radiotherapy and chemotherapy” (The Journal of Clinical Investigation, 2019).

The term inhibition denotes the change of the read-out against control, counted positive when it falls. Read a high inhibition as strong suppression.

T1 sequence (P48730 whole entry): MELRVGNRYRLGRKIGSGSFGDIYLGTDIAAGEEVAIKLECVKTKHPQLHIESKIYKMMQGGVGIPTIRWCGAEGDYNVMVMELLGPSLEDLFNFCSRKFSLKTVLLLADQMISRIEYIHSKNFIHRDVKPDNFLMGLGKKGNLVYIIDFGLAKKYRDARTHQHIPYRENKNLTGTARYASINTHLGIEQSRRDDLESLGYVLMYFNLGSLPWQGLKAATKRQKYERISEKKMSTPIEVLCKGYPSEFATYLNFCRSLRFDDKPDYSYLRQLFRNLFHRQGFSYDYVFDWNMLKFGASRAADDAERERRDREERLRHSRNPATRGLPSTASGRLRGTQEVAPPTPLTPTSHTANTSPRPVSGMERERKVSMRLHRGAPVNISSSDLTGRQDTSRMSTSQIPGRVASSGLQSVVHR

As to `CN(C(=O)CN1CCOCC1)c1ccc2sc3c(-c4cccc5c(=O)cc(N6CC7CCC(C6)O7)oc45)cccc3c2c1` [NU5455], 1 µM produced 2.6% inhibition.
